The results in this text go back to US10981932B2, “Macrocyclic indole derivatives” (Bayer Aktiengesellschaft, priority 2016, dated 2021).

In series [1] the target is MCL-1 (Homo sapiens, UniProt Q07820). The series can be described thus: Protein-protein interaction assay MCL-1/Noxa BH3 peptide (MCL-1 assay), TR-FRET. Conditions: MBP-MCL-1 / Noxa BH3-derived peptide, median. The series is classed as binding. The gist of the method:
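Displacement of the biotinylated Noxa BH3 peptide from MBP-tagged human MCL-1 (1 nM) is detected by time-resolved FRET. Compounds are tested in duplicate across eleven concentrations up to 20 μM, incubated 1 h at 22 °C and overnight at 4 °C, and IC50 is fitted with a four-parameter equation.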
On the technique in general: Time-resolved FRET reads energy transfer from a long-lived donor to a nearby acceptor.

The subject of series [2] is SUDHL5. The series can be described thus: Induction of caspase-3/7 activity (Caspase-Glo 3/7), SUDHL5. The series is classed as cell-based. The note with it: caspase-3/7 induction, SUDHL5 cells, 3 h treatment, median. Put shortly: (§1)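 Caspase-Glo 3/7 luminescence, 3 h compound exposure, 37 °C, humidified. Minus medium-only blank. EC50 fit: C0=1, plateau = reference max induction.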

The subject of series [3] is SUDHL10. The series can be described thus: Induction of caspase-3/7 activity (Caspase-Glo 3/7), SUDHL10. The series is classed as cell-based. The note with it: caspase-3/7 induction, SUDHL10 cells, 3 h treatment, median. Put shortly:
as §1

Series [4] concerns SUDHL10. The series can be described thus: Anti-proliferative effect (CellTiter-Glo, 72 h), SUDHL10. The note with it: SUDHL10 cells, antiproliferation, 72 h incubation, median, read-out: Antiproli SUDHL10 [M] (median). In kind it is cell-based. The gist of the method:
(§2)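 Viable cells quantified with CellTiter-Glo after 72 h at 37 °C; rim wells excluded; day 0 plate as baseline.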
Background: Cellular ATP, detected with luciferase, serves as a proxy for viable cell number.

Series [5] deals with OPM2. Kind of series: Anti-proliferative effect (CellTiter-Glo, 72 h), OPM2. The series is classed as cell-based. The note with it: OPM2 cells, median, read-out: IC50 antiproliferation assay OPM2 [M] (median). As for the experimental part: Assessment of the Anti-Proliferative Effect of Compounds in Different Cell Lines
The impact of compounds on the proliferation of different cell lines was assessed using the CellTiter-Glo® Luminescent Cell Viability reagent from Promega (G7573). Of note, SUDHL10 and SUDHL5 (DLBCL), NCI-H929 (Multiple Myeloma), A2780 (ovarian carcinoma) as well as MV-4-11(AML) cells are sensitive to MCL-1 inhibition.
In parallel, cells were plated in a reference (day 0) plate for time zero determination.
Rim wells were excluded. The cells were incubated for 72 h hours in a humidified incubator at 37° C. The day 0 plate was measured by adding 30 μl/well of CTG solution (CellTiter-Glo® Luminescent Cell Viability reagent, Promega G7573) to time zero wells in the reference plate followed by a 10 minutes incubation and luminescence reading at 0.1 ms, using the PHERAstar FS microplate reader (BMG Labtech).
After 72 h incubation, the treated plates were measured in the same way as the day 0 plate mentioned above.

The test system of series [6] is A2780. The series can be described thus: Anti-proliferative effect (CellTiter-Glo, 72 h), A2780. The note with it: Homo sapiens, A2780, 72 h, A2780 cells, median, read-out: IC50 antiproliferation assay A2780 [M] (median). The series is classed as cell-based. The gist of the method: as §2
Series [7] relates to SUDHL5. The series can be described thus: Induction of cytotoxicity (CellTiter-Glo, 5 h), SUDHL5.
Series [8] has as its system SUDHL10. The series can be described thus: Induction of cytotoxicity (CellTiter-Glo, 5 h), SUDHL10.
Series [9] concerns SUDHL5. The series can be described thus: Anti-proliferative effect (CellTiter-Glo, 72 h), SUDHL5. In kind it is cell-based. Conditions: Homo sapiens, SU-DHL-5, 72 h, SUDHL5 cells, antiproliferation, 72 h incubation, median, read-out: Antiproli SUDHL5 [M] (median). Put shortly: as §2
[10] abbreviates: Homo sapiens, SU-DHL-5, 5 h, read-out: Cytotox SUDHL5 [M] (median), SUDHL5 cells, cytotoxicity induction, CellTiter-Glo, 5 h incubation, median.
Where [11] appears, read: Homo sapiens, SU-DHL10, 5 h, read-out: Cytotox SUDHL10 [M] (median), SUDHL10 cells, cytotoxicity induction, CellTiter-Glo, 5 h incubation, median.

“And” between values parts separate entries of the source, which are not always exact repeats. Equal entries are not always repeated. Where two headings read alike, the source gives them in different places.

Usually EC50 stands for the midpoint of the concentration-response curve. A higher EC50 goes with a less potent agent.

Chain of MCL-1 (Q07820 whole entry): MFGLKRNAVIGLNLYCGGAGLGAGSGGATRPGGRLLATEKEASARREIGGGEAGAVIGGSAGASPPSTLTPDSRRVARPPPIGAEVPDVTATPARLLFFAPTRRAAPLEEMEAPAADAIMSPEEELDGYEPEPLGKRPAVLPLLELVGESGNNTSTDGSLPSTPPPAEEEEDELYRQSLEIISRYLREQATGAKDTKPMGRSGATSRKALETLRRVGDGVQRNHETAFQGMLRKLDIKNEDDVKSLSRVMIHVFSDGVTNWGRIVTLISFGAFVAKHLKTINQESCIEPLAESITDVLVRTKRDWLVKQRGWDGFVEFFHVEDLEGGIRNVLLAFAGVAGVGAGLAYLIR

For `CC(C)OCc1nn(C)c2c1-c1cccc3c(CCCOc4cccc5ccccc45)c(C(=O)O)n(c13)CCCN(C)C2` (racemic) [Example 1-70, (rac)-7,9-dimethyl-1-[3-(naphthalen-1-yloxy)propyl]-11-[(propan-2-yloxy)methyl]-4,5,6,7,8,9-hexahydropyrazolo[3′,4′:78][1,5]diazecino[9,10,1-hi]indole-2-carboxylic Acid], the IC50 was 20 nM in [1]; 1.31e-05 M in series [4] (Homo sapiens, SU-DHL10, 72 h); 1.22e-05 M in series [5] (Homo sapiens, OPM-2, 72 h); 1.82e-05 M in series [6]; above 3.3e-05 M in series [7] (setting [10]); 2.78e-05 M in [8] (setting [11]). The concentration giving a half-maximal response (EC50) in [2] (Homo sapiens, SU-DHL-5, 3 h) is above 33 µM; in [3] (Homo sapiens, SU-DHL10, 3 h), above 33 µM.
For the compound `Cc1nn(C)c2c1-c1cccc3c(CCCOc4cccc5ccccc45)c(C(=O)O)n(c13)CCN(c1ccccc1)C2` (racemic) [Example 1-101, (rac)-8,10-Dimethyl-1-[3-(1-naphthyloxy)propyl]-6-phenyl-5,6,7,8-tetrahydro-4H-pyrazolo[3′,4′:6,7][1,4]diazonino[8,9,1-hi]indole-2-carboxylic Acid], the IC50 in [1] was 319 nM; in series [4] (Homo sapiens, SU-DHL10, 72 h), 1.05e-05 M; in series [5] (Homo sapiens, OPM-2, 72 h), above 3.3e-05 M; in series [6], 1.97e-05 M; in series [7] (setting [10]), above 3.3e-05 M; in series [8] (setting [11]), above 3.3e-05 M. The EC50 was above 33 µM in series [2] (Homo sapiens, SU-DHL-5, 3 h) and above 33 µM in series [3] (Homo sapiens, SU-DHL10, 3 h).
With `COc1cc2cc(c1)-c1cccc3c(CCCOc4cccc5c4CCCC5)c(C(=O)O)n(c13)CCOCCO2` (racemic) [Example 1-118, (rac)-12-Methoxy-1-[3-(5,6,7,8-tetrahydronaphthalen-1-yloxy)propyl]-4,57,8-tetrahydro-10,14-(metheno)[1,4,7]dioxazacyclotetradecino[9,8,7-hi]indole-2-carboxylic Acid], the IC50 in [1] was 2180 nM; in series [4] (Homo sapiens, SU-DHL10, 72 h), 2.2e-05 M; in [5] (Homo sapiens, OPM-2, 72 h), above 3.3e-05 M; in series [6] it was 3.25e-05 M; in series [7] (setting [10]), above 3.3e-05 M; in series [8] (setting [11]) it was above 3.3e-05 M. For the same compound, the EC50 was above 33 µM in [2] (Homo sapiens, SU-DHL-5, 3 h) and above 33 µM in [3] (Homo sapiens, SU-DHL10, 3 h).
In the case of `COc1cc2cc(c1)-c1cccc3c(CCCOc4cccc5ccccc45)c(C(=O)O)n(c13)CCOCCO2` (racemic) [Example 1-119, (rac)-12-Methoxy-1-[3-(1-naphthyloxy)propyl]-4,5,7,8-tetrahydro-10,14-(metheno)[1,4,7]dioxazacyclotetradecino[9,8,7-hi]indole-2-carboxylic Acid], the IC50 in [1] is 2310 nM; in [4] (Homo sapiens, SU-DHL10, 72 h) it was above 3.3e-05 M; in [5] (Homo sapiens, OPM-2, 72 h) it was above 3.3e-05 M; in series [6], above 3.3e-05 M; in series [7] (setting [10]) it was above 3.3e-05 M; in series [8] (setting [11]), above 3.3e-05 M. The EC50 is above 33 µM in series [2] (Homo sapiens, SU-DHL-5, 3 h) and above 33 µM in series [3] (Homo sapiens, SU-DHL10, 3 h).
Consider `Cn1nc(COc2ccc(N3CCN(CC(=O)O)CC3)cc2)c2c1COCCCCn1c(C(=O)O)c(CCCOc3cccc4ccccc34)c3cccc-2c31` (racemic) [Example 1-120, (rac)-3-({4-[4-(Carboxymethy)piperazin-1-yl]phenoxy}methyl)-1-methyl-7-[3-(naphthalen-1-yloxy)propyl]-1,10,11,12,13,15-hexahydropyrazolo[4′,3′:9,10][1,6]oxazacycloundecino[8,7,6-hi]indole-8-carboxylic Acid], for which the IC50 in series [1] is 4.66 nM; in series [4] (Homo sapiens, SU-DHL10, 72 h) it was above 3.3e-05 M; in series [5] (Homo sapiens, OPM-2, 72 h), above 3.3e-05 M; in series [6], above 3.3e-05 M; in series [7] (setting [10]), above 3.3e-05 M; in series [8] (setting [11]), above 3.3e-05 M. The 50% effective concentration (EC50) in [2] (Homo sapiens, SU-DHL-5, 3 h) is above 33 µM; in [3] (Homo sapiens, SU-DHL10, 3 h) it was above 33 µM.
For the compound `COc1cc2cc(c1)-c1cccc3c(CCCOc4cccc5ccccc45)c(C(=O)O)n(c13)CCCCCO2` (racemic) [Example 1-122, (rac)-12-Methoxy-1-[3-(naphthalen-1-yloxy)propyl]-5,6,7,8-tetrahydro-4H-10,14-(metheno)[1,7]oxazacyclotetradecino[9,8,7-hi]indole-2-carboxylic Acid], the IC50 in [1] was 6880 nM; in series [4] (Homo sapiens, SU-DHL10, 72 h), above 3.3e-05 M; in series [5] (Homo sapiens, OPM-2, 72 h), 2.77e-05 M; in series [6], 2.8e-05 M; in series [7] (setting [10]), above 3.3e-05 M; in series [8] (setting [11]), above 3.3e-05 M. Besides, the EC50 in series [2] (Homo sapiens, SU-DHL-5, 3 h) is above 33 µM; in series [3] (Homo sapiens, SU-DHL10, 3 h), above 33 µM.
Consider `CN(C)S(=O)(=O)N1CCN(c2ccc(OCc3nn(C)c4c3-c3cccc5c(CCCOc6cccc7ccccc67)c(C(=O)O)n(c35)CCCN(Cc3ccccc3)C4)cc2)CC1` (racemic) [Example 004, (rac)-(7-benzyl-11-({4-[4dimethylsulfamoyl)piperazin-1-yl]phenoxy}methyl)-9-methyl-1-[3-(1-naphthyloxy)propyl]4,5,6,7,8,9-hexahydropyrazolo[3′,4′:7,8][1,5]diazecino[9,10,1-hi]indole-2-carboxylic Acid], for which the IC50 in series [1] is 117 nM; in series [4] (Homo sapiens, SU-DHL10, 72 h) it was 2.04e-06 M; in series [5] (Homo sapiens, OPM-2, 72 h) it was 1.09e-05 M; in [6], 7.13e-06 M; in series [7] (setting [10]), 1.47e-05 M; in [8] (setting [11]), 2.57e-05 M. Further, the concentration for a half-maximal effect (EC50) in series [2] (Homo sapiens, SU-DHL-5, 3 h) stood at 12.5 µM; in series [3] (Homo sapiens, SU-DHL10, 3 h), 25.8 µM.
As for `COC1(c2ccc(OCc3nn(C)c4c3-c3cccc5c(CCCOc6cccc7ccccc67)c(C(=O)O)n(c35)CCCCOC4)cc2)CCOCC1` (single isomer, unassigned) [Example 1-66, 3-{[4-(4-methoxytetrahydro-2H-pyran-4-yl)phenoxy]methyl}-1-methyl-7-[3-(naphthalen-1-yloxy)propyl]-1,10,11,12,13,15-hexahydropyrazolo[4′,3′:9,10][1,6]oxazacycloundecino[8,7,6-hi]indole-8-carboxylic Acid], the IC50 in series [1] was 9.43 nM; in [4] it was 9.23e-06 M and 1.76e-05 M; in series [5] (Homo sapiens, OPM-2, 72 h) it was 1.18e-05 M; in series [6], 1.22e-05 M. Also, the EC50 in [2] worked out at 6.15 µM; in [3] it was 8.47 µM.
For the compound `CC(=O)N1CCN(c2ccc(OCc3nn(C)c4c3-c3cccc5c(CCCOc6cccc7ccccc67)c(C(=O)O)n(c35)CCCCOC4)cc2)CC1` (single isomer, unassigned; enantiomer 1) [Example 1-25, 3-{[4-(4-acetylpiperazin-1-yl)phenoxy]methyl}-1-methyl-7-[3-(naphthalen-1-yloxy)propyl]-1,10,11,12,13,15-hexahydropyrazolo[4′,3′:9,10][1,6]oxazacycloundecino[8,7,6-hi]indole-8-carboxylic Acid (Enantiomer 1)], the IC50 in series [1] came out at 131 nM; in series [9] it was 2.86e-05 M; in series [5], 1.08e-05 M; in [6], 1.7e-05 M; in [7] (read-out: Cytotox SUDHL5 [M] (median), SUDHL5 cells, cytotoxicity induction, CellTiter-Glo, 5 h incubation, median), 2.68e-06 M; in series [8] (read-out: Cytotox SUDHL10 [M] (median), SUDHL10 cells, cytotoxicity induction, CellTiter-Glo, 5 h incubation, median), 4.02e-06 M. The half-maximal effective concentration (EC50) amounted to 1.61 µM in series [2] and 3.89 µM in series [3].
